The experiment deals with KLF4 (Kruppel-Like Factor 4) (Homo sapiens, UniProt O43474). As to the kind of experiment: SPR. The class given is binding.

The Kd is a measure of binding affinity in units of concentration. The low end stands for higher affinity, the high end for lower affinity.

Chain of KLF4 (Kruppel-Like Factor 4) (O43474 whole entry): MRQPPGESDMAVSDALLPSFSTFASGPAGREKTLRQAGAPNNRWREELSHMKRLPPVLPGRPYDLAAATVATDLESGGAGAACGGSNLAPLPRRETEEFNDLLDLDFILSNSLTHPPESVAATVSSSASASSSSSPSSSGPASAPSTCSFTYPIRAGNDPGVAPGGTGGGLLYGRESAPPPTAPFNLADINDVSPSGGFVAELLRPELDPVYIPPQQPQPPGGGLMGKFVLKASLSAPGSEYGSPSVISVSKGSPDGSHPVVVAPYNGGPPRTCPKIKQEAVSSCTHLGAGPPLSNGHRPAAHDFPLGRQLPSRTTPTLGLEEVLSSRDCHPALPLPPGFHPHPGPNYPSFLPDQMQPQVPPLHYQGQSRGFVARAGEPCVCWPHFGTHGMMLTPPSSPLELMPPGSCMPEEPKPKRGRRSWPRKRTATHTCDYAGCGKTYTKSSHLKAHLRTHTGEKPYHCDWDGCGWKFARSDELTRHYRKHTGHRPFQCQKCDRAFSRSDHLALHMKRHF

`C[C@@H]1O[C@@H](O[C@H]2C(=O)c3c(O)cc(O)cc3O[C@@H]2c2ccc(O)c(O)c2)[C@H](O)[C@H](O)[C@H]1O` [Astilbin] returned a Kd of 48.9 µM.

Values taken from publication PMC11566621 (Stem Cell Research & Therapy, 2024).
